According to PubChem BioAssay AID256 (DTP/NCI, 2004):
Several values for one entry are separate records, joined by “and”; a condition that tells them apart may be missing. Identical values can stand only once. Toxic doses and inconclusive results are not listed. Rule for the calls: active = survival T/C of 150% or more; inactive = T/C below 125% in these data.

Tested on: CD2F1 mice, L1210 leukemia ip, survival T/C
Assay: NCI In Vivo Anticancer Drug Screen. Data for tumor model L1210 Leukemia (intraperitoneal) in CD2F1 (CDF1) mice
Conditions: higher = longer survival
Summary of the method: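 Read-out first: treated-group measurement over vehicle-control measurement, expressed as a ratio. Animals bore a transplanted tumor line and were dosed with compound or vehicle.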

[1] = endpoint: mean survival time, dose: 50.0 mg/kg/injection, schedule: Q01DX009 (ip), vehicle: saline with Tween-80
[2] = endpoint: mean survival time, dose: 100.0 mg/kg/injection, schedule: Q01DX009 (ip), vehicle: saline with Tween-80
[3] = endpoint: mean survival time, dose: 100.0 mg/kg/injection, schedule: Q04DX003 (ip), vehicle: saline with Tween-80
[4] = endpoint: mean survival time, dose: 200.0 mg/kg/injection, schedule: Q04DX003 (ip), vehicle: saline with Tween-80
[5] = endpoint: mean survival time, dose: 200.0 mg/kg/injection, schedule: Q01DX009 (ip), vehicle: saline with Tween-80
[6] = endpoint: mean survival time, dose: 400.0 mg/kg/injection, schedule: Q01DX009 (ip), vehicle: saline with Tween-80
[7] = endpoint: mean survival time, dose: 400.0 mg/kg/injection, schedule: Q04DX003 (ip), vehicle: saline with Tween-80
[8] = endpoint: mean survival time, dose: 75.0 mg/kg/injection, schedule: Q01DX001 (ip), vehicle: saline
[9] = endpoint: mean survival time, dose: 100.0 mg/kg/injection, schedule: Q01DX001 (ip), vehicle: saline with Tween-80
[10] = endpoint: mean survival time, dose: 200.0 mg/kg/injection, schedule: Q01DX001 (ip), vehicle: saline with Tween-80

Measured: T/C

N#CC(NCc1ccccc1)c1ccc2c(c1)OCO2 (centres undefined)
inactive: [1] 98 % of control | [2] 90 % of control | [3] 99 % of control | [4] 108 % of control

CN=C1CCCCN1
inactive: endpoint: mean survival time, dose: 100.0 mg/kg/injection, schedule: Q04DX003 (ip), vehicle: saline sonified 103 % of control | endpoint: mean survival time, dose: 200.0 mg/kg/injection, schedule: Q04DX003 (ip), vehicle: saline sonified 104 % of control | endpoint: mean survival time, dose: 400.0 mg/kg/injection, schedule: Q04DX003 (ip), vehicle: saline sonified 103 % of control

O=c1nc(NCCc2c[nH]c3ccccc23)ccn1C1OC(CO)C(O)C1O (centres undefined)
inactive: endpoint: median survival time, dose: 12.5 mg/kg/injection, schedule: Q01DX005 (ip), vehicle: distilled water + Tween-80 101 % of control | endpoint: median survival time, dose: 25.0 mg/kg/injection, schedule: Q01DX005 (ip), vehicle: distilled water + Tween-80 100 % of control | endpoint: median survival time, dose: 50.0 mg/kg/injection, schedule: Q01DX005 (ip), vehicle: distilled water + Tween-80 98 % of control | endpoint: median survival time, dose: 100.0 mg/kg/injection, schedule: Q01DX005 (ip), vehicle: distilled water + Tween-80 98 % of control | endpoint: median survival time, dose: 200.0 mg/kg/injection, schedule: Q01DX005 (ip), vehicle: distilled water + Tween-80 98 % of control

COC(=O)C1CN=NC1C(=O)OC (centres undefined)
inactive: [2] 95 % of control | [5] 95 % of control | [6] 91 % of control

COc1cc(OC)c(C(=O)c2ccccc2N)c(OC)c1
inactive: [1] 98 % of control | [2] 101 % of control | [5] 98 % of control

COC(=O)c1ccc(OCc2ccccc2)c([N+](=O)[O-])c1
inactive: endpoint: mean survival time, dose: 100.0 mg/kg/injection, schedule: Q01DX001 (ip), vehicle: saline sonified 98 % of control | [2] 105 % of control | endpoint: mean survival time, dose: 200.0 mg/kg/injection, schedule: Q01DX001 (ip), vehicle: saline sonified 96 % of control | [5] 97 % of control | endpoint: mean survival time, dose: 400.0 mg/kg/injection, schedule: Q01DX001 (ip), vehicle: saline sonified 95 % of control | [6] 105 % of control

ClCCCC1(CCCCl)OCCO1
inactive: endpoint: mean survival time, dose: 100.0 mg/kg/injection, schedule: Q04DX002 (ip), vehicle: saline with Tween-80 101 % of control | endpoint: mean survival time, dose: 200.0 mg/kg/injection, schedule: Q04DX002 (ip), vehicle: saline with Tween-80 97 % of control | endpoint: mean survival time, dose: 400.0 mg/kg/injection, schedule: Q04DX002 (ip), vehicle: saline with Tween-80 104 % of control

Cc1cccc(C)c1NC(=S)NNC(=O)c1ccncc1
inactive: endpoint: mean survival time, dose: 25.0 mg/kg/injection, schedule: Q01DX009 (ip), vehicle: saline with Tween-80 101 % of control | [1] 97 % of control | [2] 92 % of control

O=C(Nc1ccc2c3c(cccc13)C=C2)c1ccccc1
inactive: [3] 96 % of control | [4] 93 % of control | [7] 93 % of control

O=C(OC(CC[P+](c1ccccc1)(c1ccccc1)c1ccccc1)(C(=O)c1ccccc1)c1ccccc1)c1ccccc1 (centres undefined)
inactive: endpoint: mean survival time, dose: 0.38 mg/kg/injection, schedule: Q01DX009 (ip), vehicle: saline 104 % of control | endpoint: mean survival time, dose: 0.75 mg/kg/injection, schedule: Q01DX009 (ip), vehicle: saline 105 % of control | endpoint: mean survival time, dose: 1.5 mg/kg/injection, schedule: Q01DX009 (ip), vehicle: saline 93 % of control

CCC1(CC)COC(C)(C(=O)O)OC1
inactive: endpoint: mean survival time, dose: 100.0 mg/kg/injection, schedule: Q04DX003 (ip), vehicle: saline 111 % of control | endpoint: mean survival time, dose: 200.0 mg/kg/injection, schedule: Q04DX003 (ip), vehicle: saline 96 % of control | endpoint: mean survival time, dose: 400.0 mg/kg/injection, schedule: Q04DX003 (ip), vehicle: saline 100 % of control

COC(=O)C1=CCC[N+](C)(C)C1
inactive: endpoint: mean survival time, dose: 1.56 mg/kg/injection, schedule: Q04DX002 (ip), vehicle: saline 93 % of control | endpoint: mean survival time, dose: 3.13 mg/kg/injection, schedule: Q04DX002 (ip), vehicle: saline 93 % of control | endpoint: mean survival time, dose: 6.25 mg/kg/injection, schedule: Q04DX002 (ip), vehicle: saline 93 % of control and 105 % of control

O=c1[nH]c2cc3ccccc3cc2c(=O)o1
inactive: [3] 92 % of control | [4] 88 % of control | [7] 98 % of control

CCCCCCCCN(CCCCCCCC)CC(O)c1ccc2c(c1)Sc1ccccc1O2 (centres undefined)
inactive: [8] 93 % of control | endpoint: mean survival time, dose: 150.0 mg/kg/injection, schedule: Q01DX001 (ip), vehicle: saline 90 % of control

CN(CCCCl)CCCCl
inactive: [8] 103 % of control

O=c1cc[nH]c2c(-c3ccccc3)cccc12
inactive: endpoint: mean survival time, dose: 37.5 mg/kg/injection, schedule: Q01DX009 (ip), vehicle: saline 108 % of control | endpoint: mean survival time, dose: 75.0 mg/kg/injection, schedule: Q01DX009 (ip), vehicle: saline 105 % of control | endpoint: mean survival time, dose: 75.0 mg/kg/injection, schedule: Q04DX003 (ip), vehicle: saline 95 % of control | endpoint: mean survival time, dose: 150.0 mg/kg/injection, schedule: Q01DX009 (ip), vehicle: saline 97 % of control | endpoint: mean survival time, dose: 150.0 mg/kg/injection, schedule: Q04DX003 (ip), vehicle: saline 98 % of control | endpoint: mean survival time, dose: 300.0 mg/kg/injection, schedule: Q04DX003 (ip), vehicle: saline 97 % of control

O=C(CCCN1CCC(O)(c2ccc(C(F)(F)F)cc2)CC1)c1ccc(N2CCC(O)CC2)cc1
inactive: endpoint: mean survival time, dose: 12.5 mg/kg/injection, schedule: Q04DX002 (ip), vehicle: saline with Tween-80 103 % of control | endpoint: mean survival time, dose: 25.0 mg/kg/injection, schedule: Q04DX002 (ip), vehicle: saline with Tween-80 103 % of control | endpoint: mean survival time, dose: 50.0 mg/kg/injection, schedule: Q04DX002 (ip), vehicle: saline with Tween-80 103 % of control

OCC1OC(n2cnc3c(N4CCCC4)ncnc32)C(O)C1O (centres undefined)
inactive: endpoint: mean survival time, dose: 12.5 mg/kg/injection, schedule: Q01DX005 (ip), vehicle: other 101 % of control | endpoint: mean survival time, dose: 25.0 mg/kg/injection, schedule: Q01DX005 (ip), vehicle: other 101 % of control | endpoint: mean survival time, dose: 50.0 mg/kg/injection, schedule: Q01DX005 (ip), vehicle: other 108 % of control | endpoint: mean survival time, dose: 100.0 mg/kg/injection, schedule: Q01DX005 (ip), vehicle: other 106 % of control | endpoint: mean survival time, dose: 200.0 mg/kg/injection, schedule: Q01DX005 (ip), vehicle: other 96 % of control

NC(=O)Cc1ccccc1[N+](=O)[O-]
inactive: endpoint: mean survival time, dose: 50.0 mg/kg/injection, schedule: Q01DX001 (ip), vehicle: saline with Tween-80 95 % of control | [9] 104 % of control | [10] 106 % of control

CCCC(CC)OC(=O)Nc1cccc2ccccc12 (centres undefined)
inactive: endpoint: mean survival time, dose: 100.0 mg/kg/injection, schedule: Q01DX001 (ip), vehicle: saline 100 % of control | endpoint: mean survival time, dose: 200.0 mg/kg/injection, schedule: Q01DX001 (ip), vehicle: saline 102 % of control | endpoint: mean survival time, dose: 400.0 mg/kg/injection, schedule: Q01DX001 (ip), vehicle: saline 100 % of control

CC(=Nc1ccccc1)c1cccs1
inactive: [3] 95 % of control | [4] 101 % of control | [7] 87 % of control

Cc1cc(C(=O)O)c(C)c([N+](=O)[O-])c1
inactive: [9] 96 % of control | [10] 96 % of control | endpoint: mean survival time, dose: 400.0 mg/kg/injection, schedule: Q01DX001 (ip), vehicle: saline with Tween-80 100 % of control
